Data published in patent publication US6943196B1, “NF-κB inhibitor comprising phenylmethyl benzoquinone as the active ingredient” (Daiichi Suntory Pharma Co., Ltd., priority 1998, dated 2005).

How the values were obtained:
NO production = NO production of LPS-stimulated RAW264.7 cells (Griess' method); assay type: cell-based; conditions: Mus musculus, LPS (10 μg/ml), NO in culture medium after 24 hours
Description: (§1) When various cells are stimulated with LPS, NF-κB is activated which results in the expression and induction of proteins represented by […] and TNF-α, and thereby the cells start to produce NO and TNF-α.
The Griess' method utilizing a diazo reaction has been known as a method for indirectly knowing that a cell actually produces NO. In the Griess' method, the Griess' reagent in which naphthylethylenediamine and sulfanilic acid have been mixed is reacted with NO2 ion in the culture medium, and the color development thereof is measured by absorbance at 540 nm. The amount of NO accumulated in the cell culture medium after 24 hours was measured in this method with a result that the production of NO released from LPS (10 μg/ml)-stimulated RAW264.7 cells (ATCC, TIB-71) derived from macrophage is suppressed by the compound obtained in Example 4 (FIG. 4A).
(§2) The inhibitory activity of the compounds shown in the Examples is expressed as an IC50 value.

TNF-α production = TNF-α production of LPS-stimulated RAW264.7 cells (ELISA); assay type: cell-based; conditions: Mus musculus, LPS (10 μg/ml) for 4 hours
Description: as §1, §2

Compound | IC50 (NO production) | IC50 (TNF-α production)
COC1=C(OC)C(=O)C(Cc2ccc(CCC(=O)NC(C)C)cc2)=C(C)C1=O [Example 9, N-[3-[4-(5,6-dimethoxy-3-methyl-1,4-benzoquinon-2-ylmethyl)phenyl]propionyl]isopropylamine] | 10 µM | 16 µM
COC1=C(OC)C(=O)C(Cc2ccc(CC(=O)N3CCOCC3)cc2)=C(C)C1=O [Example 53, N-[4-(5,6-dimethoxy-3-methyl-1,4-benzoquinon-2-ylmethyl)phenylacetyl]morpholine] | 19 µM | 19 µM
COC1=C(OC)C(=O)C(Cc2ccc(CCC(=O)N3CCSCC3)cc2)=C(C)C1=O [Example 4, N-[3-[4-(5,6-dimethoxy-3-methyl-1,4-benzoquinon-2-ylmethyl)phenyl]propionyl]thiomorpholine] | 21 µM | 21 µM
COC1=C(OC)C(=O)C(Cc2ccc(CCC(=O)N[C@@H](C)c3ccccc3)cc2)=C(C)C1=O [Example 120] | 7 µM | 11 µM
COC1=C(OC)C(=O)C(Cc2ccc(CCC(=O)N3CCCCC3C)cc2)=C(C)C1=O (stereo not shown) [Example 83] | 6 µM | 9 µM
COC1=C(OC)C(=O)C(Cc2ccc(CCC(=O)N3CCC(C)CC3)cc2)=C(C)C1=O [Example 81] | 13 µM | 13 µM
COC1=C(OC)C(=O)C(Cc2ccc(CCC(=O)N3CCCCC3)cc2)=C(C)C1=O [Example 7, N-[3-[4-(5,6-dimethoxy-3-methyl-1,4-benzoquinon-2-ylmethyl)phenyl]propionyl]piperidine] | 15 µM | 22 µM
COC1=C(OC)C(=O)C(Cc2cccc(CCC(=O)NC(C)C)c2)=C(C)C1=O [Example 35, N-[3-[3-(5,6-dimethoxy-3-methyl-1,4-benzoquinon-2-ylmethyl)phenyl]propioyl]isopropylamine] | 19 µM | 19 µM
COC1=C(OC)C(=O)C(Cc2ccc(CCC(=O)Nc3ccc(OC)c(OC)c3)cc2)=C(C)C1=O [Example 103] | 31 µM | 31 µM
COC1=C(OC)C(=O)C(Cc2ccc(CCC(=O)Nc3ccc(OC)cc3)cc2)=C(C)C1=O [Example 94] | 9 µM | 11 µM
COC1=C(OC)C(=O)C(Cc2ccc(CCC(=O)N3CCC(C(C)=O)(c4ccccc4)CC3)cc2)=C(C)C1=O [Example 168] | 17 µM | 17 µM
COC1=C(OC)C(=O)C(Cc2ccc(CCC(=O)N3CCC[C@H]3C(N)=O)cc2)=C(C)C1=O [Example 106] | 17 µM | 25 µM
COC1=C(OC)C(=O)C(Cc2ccc(CCC(=O)N3CC(C)CC(C)C3)cc2)=C(C)C1=O (stereo not shown) [Example 137] | 20 µM | 20 µM
COC1=C(OC)C(=O)C(Cc2ccc(CCC(=O)N3CCCC(C)C3)cc2)=C(C)C1=O (stereo not shown) [Example 85] | 21 µM | 26 µM
